Results reported in patent US20220162163A1, “ALANINE-BASED MODULATORS OF PROTEOLYSIS AND ASSOCIATED METHODS OF USE” (Arvinas Operations, Inc., priority 2015, published 2022).

Molecular target: T1, Androgen receptor (AR) (Homo sapiens, UniProt P10275)
T1 construct: endogenous in cells; host or cells: VCaP
T1 sequence (P10275 1-920): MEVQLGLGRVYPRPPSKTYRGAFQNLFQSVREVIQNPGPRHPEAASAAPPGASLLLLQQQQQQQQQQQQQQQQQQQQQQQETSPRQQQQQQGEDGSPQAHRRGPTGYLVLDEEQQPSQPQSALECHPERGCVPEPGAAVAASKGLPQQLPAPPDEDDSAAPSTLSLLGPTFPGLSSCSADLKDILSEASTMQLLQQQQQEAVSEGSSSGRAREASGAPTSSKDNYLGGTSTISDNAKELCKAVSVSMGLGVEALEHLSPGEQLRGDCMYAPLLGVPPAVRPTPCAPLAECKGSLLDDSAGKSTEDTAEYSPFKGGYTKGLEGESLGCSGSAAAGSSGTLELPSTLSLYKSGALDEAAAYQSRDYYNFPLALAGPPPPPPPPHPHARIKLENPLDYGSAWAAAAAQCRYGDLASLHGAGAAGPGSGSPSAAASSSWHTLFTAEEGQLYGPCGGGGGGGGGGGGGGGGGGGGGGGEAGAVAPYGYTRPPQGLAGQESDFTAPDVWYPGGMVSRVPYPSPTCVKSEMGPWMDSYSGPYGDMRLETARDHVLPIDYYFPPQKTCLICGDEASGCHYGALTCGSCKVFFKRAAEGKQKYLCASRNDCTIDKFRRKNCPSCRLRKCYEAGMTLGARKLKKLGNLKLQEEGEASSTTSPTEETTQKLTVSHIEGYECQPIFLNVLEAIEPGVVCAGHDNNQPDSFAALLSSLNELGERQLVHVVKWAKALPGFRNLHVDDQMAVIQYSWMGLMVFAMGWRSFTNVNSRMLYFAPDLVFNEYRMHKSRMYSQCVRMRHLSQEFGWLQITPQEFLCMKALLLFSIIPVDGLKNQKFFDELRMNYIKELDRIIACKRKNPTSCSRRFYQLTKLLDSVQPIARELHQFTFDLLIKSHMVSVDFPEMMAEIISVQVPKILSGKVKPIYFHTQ
Experiment: Cellular assay of androgen receptor (AR) degradation (VCaP cells, ELISA)
Assay type: cell-based
Conditions: for Target protein degradation range / Dmax at 1 µM: androgen receptor, VCaP cells, PROTAC concentration 1 μM, relative to DMSO control; for Dmax at 1 µM: 4 h, read-out: Target protein degradation range; for Androgen receptor (AR) degradation in VCaP cells: @ 1 μM
Description: Protocol of the Cellular Assay of Androgen Receptor (AR) Degradation (VCaP Cells, ELISA).
For detection Cell Signaling PathScan Sandwich Elisa Catalog #12850 Lot 11 was used. VCaP cells were cultured in ATCC DMEM+ATCC FBS and plated 40,000/well 100 μl/well in RPMI P/S with 5% CSS Omega (bovine) serum into a 96 well plate. The cells were grown for a minimum of 3 days, dosed with compounds in 0.1% DMSO (diluted with 5% CSS) and incubated with aspiration for 4 hours. 100 μl of 1× Cell Signaling lysis buffer #9803 (36 ml dH2O+4 ml Cell Signaling lysis buffer) was added. The incubation was placed on cold room shaker for 10 min at speed 8-9. 5 μl to 100 μl of Diluent was transferred to Elisa plate (0.15 ug/ml-0.075 ug/ml) and stored at 4 C overnight on cold room shaker speed 5 (gentle swirl) and then shaken next morning at 37° C. for 30 min. The preparation was washed 4×200 μl with Elisa wash buffer and aspirated with eight-channel aspirator. 100 μl/well of AR detection Ab was added after which the preparation was covered and shaken at 37° C. for 1 hr. 100 ul TMB was added, and the mixture was shaken for 5 min while under observation. When TMB turned light blue, 100 ul of Stop solution was added, and the mixture was shaken and read at 450 nm. Also read at 562 for background subtraction.

Compound	Dmax at 1 µM [%]	further results
1-[(2S)-3,3-dimethyl-2-[(2S)-2-(methylamino)propanamido]butanoyl]-N-[(1S,2R)-2-[[1-(4-[[(1r,3r)-3-(3-chloro-4-cyanophenoxy)-2,2,4,4-tetramethylcyclobutyl]carbamoyl]phenyl)-1,4,7,10-tetraoxadodecan-12-yl]oxy]-2,3-dihydro-1H-inden-1-yl]pyrrolidine-2-carboxamide [Example 3]	–	Target protein degradation range: B (degradation between 30% and 60%)
CN[C@@H](C)C(=O)N[C@H](C(=O)N1CC[C@@H]2CCN(CCc3ccc(OCCOCCOCCOCCNc4ccc(C(=O)N[C@H]5C(C)(C)[C@H](Oc6ccc(C#N)c(Cl)c6)C5(C)C)cc4)cc3)C[C@@H]21)C1CCCCC1 (racemic) [Example 33, N-((1r,3r)-3-(3-chloro-4-cyanophenoxy)-2,2,4,4-tetramethylcyclobutyl)-4-(2-(2-(2-(2-(4-(2-(1-((S)-2-cyclohexyl-2-((S)-2-(methylamino)propanamido)acetyl)-octahydropyrrolo[2,3-c]pyridin-6-yl)ethyl)phenoxy)ethoxy)ethoxy)ethoxy)ethylamino)benzamide]	30 to 60	–
CN[C@@H](C)C(=O)N[C@H](C(=O)N1CCC[C@H]1C(=O)N[C@H]1c2ccccc2C[C@H]1OCCOCCOCCOc1ccc(C(=O)N[C@H]2C(C)(C)[C@H](Oc3ccc(C#N)c(Cl)c3)C2(C)C)cc1)C(C)(C)C [(2S)-1-[(2S)-3,3-dimethyl-2-[(2S)-2-(methylamino)propanamido]butanoyl]-N-[(1S,2R)-2-(2-{2-[2-(4-{[(1r,3r)-3-(3-chloro-4-cyanophenoxy)-2,2,4,4-tetramethylcyclobutyl]carbamoyl}phenoxy)ethoxy]ethoxy}ethoxy)-2,3-dihydro-1H-inden-1-yl]pyrrolidine-2-carboxamide]	–	Androgen receptor (AR) degradation in VCaP cells: 18%
CN[C@@H](C)C(=O)N[C@H](C(=O)N1CCC[C@H]1C(=O)N[C@H]1c2ccccc2C[C@H]1OCCOCCOCCOCCOCCOc1ccc(C(=O)N[C@H]2C(C)(C)[C@H](Oc3ccc(C#N)c(Cl)c3)C2(C)C)cc1)C(C)(C)C [(2S)-1-[(2S)-3,3-dimethyl-2-[(2S)-2-(methylamino)propanamido]butanoyl]-N-[(1S,2R)-2-{[1-(4-1{[(1r,3r)-3-(3-chloro-4-cyanophenoxy)-2,2,4,4-tetramethylcyclobutyl]carbamoyl}phenyl)-1,4,7,10,13-pentaoxapentadecan-15-yl]oxy}-2,3-dihydro-1H-inden-1-yl]pyrrolidine-2-carboxamide]	–	Androgen receptor (AR) degradation in VCaP cells: 38%
CN[C@@H](C)C(=O)N[C@H](C(=O)N1CCC[C@H]1C(=O)N[C@H]1c2ccccc2C[C@H]1OCCOCCOCCOCCOc1ccc(C(=O)N[C@H]2C(C)(C)[C@H](Oc3ccc(C#N)c(Cl)c3)C2(C)C)cc1)C(C)(C)C [(2S)-1-[(2S)-3,3-dimethyl-2-[(2S)-2-(methylamino)propanamido]butanoyl]-N-[(1S,2R)-2-{[1-(4-1{[(1r,3r)-3-(3-chloro-4-cyanophenoxy)-2,2,4,4-tetramethylcyclobutyl]carbamoyl}phenyl)-1,4,7,10-tetraoxadodecan-12-yl]oxy}-2,3-dihydro-1H-inden-1-yl]pyrrolidine-2-carboxamide]	–	Androgen receptor (AR) degradation in VCaP cells: 33%
CN[C@@H](C)C(=O)N[C@H](C(=O)N1CCCC1C(=O)N[C@H]1c2ccccc2C[C@H]1OCCOCCOCCOc1ccc(C(=O)NC2C(C)(C)C(Oc3ccc(C#N)c(Cl)c3)C2(C)C)cc1)C(C)(C)C (stereo partly drawn) [Example 2, 1-[(2S)-3,3-dimethyl-2-[(2S)-2-(methylamino)propanamido]butanoyl]-N-[(1S,2R)-2-(2-[2-[2-(4-[[(1r,3r)-3-(3-chloro-4-cyanophenoxy)-2,2,4,4-tetramethylcyclobutyl]carbamoyl]phenoxy)ethoxy]ethoxy]ethoxy)-2,3-dihydro-1H-inden-1-yl]pyrrolidine-2-carboxamide]	–	Target protein degradation range: C (degradation between 0% and 30%)
CN[C@@H](C)C(=O)N[C@H](C(=O)N1CCC[C@H]1c1nc(-c2ccc(OCCOCCNc3ccc(C(=O)NC4C(C)(C)C(Oc5ccc(C#N)c(Cl)c5)C4(C)C)cc3)c3ccccc23)cs1)C1CCCCC1 (stereo partly drawn) [Example 29, 4-[(2-[2-[(4-[2-[(2S)-1-[(2S)-2-cyclohexyl-2-[(2S)-2-(methylamino)propanamido]acetyl]pyrrolidin-2-yl]-1,3-thiazol-4-yl]naphthalen-1-yl)oxy]ethoxy]ethyl)amino]-N-[(1r,3r)-3-(3-chloro-4-cyanophenoxy)-2,2,4,4-tetramethylcyclobutyl]benzamide]	0 to 30	–
CN[C@@H](C)C(=O)N[C@H](C(=O)N1CCC[C@H]1c1nc(-c2ccc(OCCOCCOCCNc3ccc(C(=O)N[C@H]4C(C)(C)[C@H](Oc5ccc(C#N)c(Cl)c5)C4(C)C)cc3)c3ccccc23)cs1)C1CCCCC1 [Example 30, 4-[1-(4-[2-[(2S)-1-[(2S)-2-Cyclohexyl-2-[(2S)-2-(methylamino)propanamido]acetyl]pyrrolidin-2-yl]-1,3-thiazol-4-yl]naphthalen-1-yl)-1,4,7-trioxa-10-azadecan-10-yl]-N-[(1r,3r)-3-(3-chloro-4-cyanophenoxy)-2,2,4,4-tetramethylcyclobutyl]benzamide]	0 to 30	–
CN[C@@H](C)C(=O)N[C@H](C(=O)N1CCC[C@H]1c1nc(-c2ccc(OCCOCCOCCOCCNc3ccc(C(=O)N[C@H]4C(C)(C)[C@H](Oc5ccc(C#N)c(Cl)c5)C4(C)C)cc3)c3ccccc23)cs1)C1CCCCC1 [Example 31, 4-[1-(4-[2-[(2S)-1-[(2S)-2-cyclohexyl-2-[(2S)-2-(methylamino)propanamido]acetyl]pyrrolidin-2-yl]-1,3-thiazol-4-yl]naphthalen-1-yl)-1,4,7,10-tetraoxa-13-azatridecan-13-yl]-N-[(1r,3r)-3-(3-chloro-4-cyanophenoxy)-2,2,4,4-tetramethylcyclobutyl]benzamide]	0 to 30	–
CN[C@@H](C)C(=O)N[C@H](C(=O)N1CCC[C@H]1C(=O)N[C@H]1c2ccccc2C[C@H]1OCCOCCOc1ccc(N2C(=S)N(c3ccc(C#N)c(C(F)(F)F)c3)C(=O)C2(C)C)cc1)C(C)(C)C [Example 35, (S)—N-((1S,2R)-2-(2-(2-(4-(3-(4-cyano-3-(trifluoromethyl)-phenyl)-5,5-dimethyl-4-oxo-2-thioxoimidazolidin-1-yl)phenoxy)ethoxy)ethoxy)-2,3-dihydro-1H-inden-1-yl)-1-((S)-3,3-dimethyl-2-((S)-2-(methylamino)propanamido)-butanoyl)pyrrolidine-2-carboxamide]	0 to 30	–

Second part, led by results:

Dmax at 1 µM [%]	Compound	further results
0 to 30	CN[C@@H](C)C(=O)N[C@H](C(=O)N1CC[C@@H]2CCN(CCc3ccc(OCCOCCOCCNc4ccc(C(=O)N[C@H]5C(C)(C)[C@H](Oc6ccc(C#N)c(Cl)c6)C5(C)C)cc4)cc3)C[C@@H]21)C1CCCCC1 (mixture of isomers) [Example 32, 4-[1-[4-(2-[1-[(2S)-2-cyclohexyl-2-[(2S)-2-(methylamino)propanamido]acetyl]-octahydro-1H-pyrrolo[2,3-c]pyridin-6-yl]ethyl)phenyl]-1,4,7-trioxa-10-azadecan-10-yl]-N-[(1r,3r)-3-(3-chloro-4-cyanophenoxy)-2,2,4,4-tetramethylcyclobutyl]benzamide]	–
30 to 60	CN[C@@H](C)C(=O)N[C@H](C(=O)N1CCC[C@H]1C(=O)N[C@H]1c2ccccc2C[C@H]1OCCOCCOCCOCCOCCOc1ccc(C(=O)NC2C(C)(C)C(Oc3ccc(C#N)c(Cl)c3)C2(C)C)cc1)C(C)(C)C (stereo partly drawn) [Example 1, 1-[3,3-dimethyl-(2S)-2-[(2S)-2-(methylamino)propanamido]butanoyl]-N-[(1S,2R)-2-[[1-(4-[[(1r,3r)-3-(3-chloro-4-cyanophenoxy)-2,2,4,4-tetramethylcyclobutyl]carbamoyl]phenyl)-1,4,7,10,13-pentaoxapentadecan-15-yl]oxy]-2,3-dihydro-1H-inden-1-yl]pyrrolidine-2-carboxamide]	–
